In ChEMBL document CHEMBL1201862, “PubChem BioAssay data set” (2004):
Active and inactive are the calls of the source.

Assays:
Cytochrome P450 3A4 = Cytochrome P450 3A4 (Homo sapiens, UniProt P08684); settings: Potency;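 further: confirmatory qHTS run detecting inhibitors and substrates of CYP3A4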
[1] = biological target: Voltage-gated inwardly rectifying potassium channel KCNH2 (Homo sapiens, UniProt Q12809); settings: Potency;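 further: confirmatory quantitative high-throughput screen measuring inhibition of hERG channel activity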
Chain of Voltage-gated inwardly rectifying potassium channel KCNH2 (Q12809 whole entry): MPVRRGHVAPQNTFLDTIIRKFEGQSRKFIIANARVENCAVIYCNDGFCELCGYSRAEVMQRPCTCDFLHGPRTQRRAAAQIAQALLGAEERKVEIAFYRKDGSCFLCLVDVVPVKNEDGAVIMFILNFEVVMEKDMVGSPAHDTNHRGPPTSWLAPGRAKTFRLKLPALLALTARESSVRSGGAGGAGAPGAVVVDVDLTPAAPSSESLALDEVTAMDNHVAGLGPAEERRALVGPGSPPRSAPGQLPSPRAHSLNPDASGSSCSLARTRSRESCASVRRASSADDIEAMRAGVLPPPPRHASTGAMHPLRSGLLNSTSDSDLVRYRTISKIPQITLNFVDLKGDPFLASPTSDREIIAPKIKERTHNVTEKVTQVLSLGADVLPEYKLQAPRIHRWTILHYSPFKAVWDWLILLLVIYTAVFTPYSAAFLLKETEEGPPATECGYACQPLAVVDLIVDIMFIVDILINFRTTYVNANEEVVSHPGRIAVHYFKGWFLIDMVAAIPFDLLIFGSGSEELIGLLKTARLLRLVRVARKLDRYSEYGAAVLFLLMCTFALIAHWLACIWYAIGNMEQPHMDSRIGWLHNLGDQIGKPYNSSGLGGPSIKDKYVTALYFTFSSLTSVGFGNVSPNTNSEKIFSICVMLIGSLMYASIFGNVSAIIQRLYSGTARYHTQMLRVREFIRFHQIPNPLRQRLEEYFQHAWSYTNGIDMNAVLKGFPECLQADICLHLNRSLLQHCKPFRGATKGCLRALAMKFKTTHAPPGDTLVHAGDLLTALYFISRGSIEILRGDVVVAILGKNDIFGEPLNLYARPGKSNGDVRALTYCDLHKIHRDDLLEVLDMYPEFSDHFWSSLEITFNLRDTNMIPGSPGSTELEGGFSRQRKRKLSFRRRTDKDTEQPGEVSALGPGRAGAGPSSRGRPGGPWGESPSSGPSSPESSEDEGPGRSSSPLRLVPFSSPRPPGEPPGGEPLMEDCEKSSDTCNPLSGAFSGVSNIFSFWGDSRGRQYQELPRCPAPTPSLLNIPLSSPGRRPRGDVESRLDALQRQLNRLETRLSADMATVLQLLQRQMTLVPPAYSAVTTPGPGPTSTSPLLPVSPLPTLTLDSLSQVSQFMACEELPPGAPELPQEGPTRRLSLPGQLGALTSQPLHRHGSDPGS

Jurkat = test: blockers of NF-kB activation in T cells – Jurkat, luciferase reporter, luminescence, B- and T-cell, dose response (AID 489004); type: functional, cell-based; settings: Homo sapiens;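 further: NF-kB luciferase reporter Jurkat cells stimulated with PMA plus ionomycin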
[2] = HEK-293T viability loss, compound-treated – cell-based, uHTS hits, cytotoxicity control for B/T-cell NF-kB inhibitor project, dose response (AID 489019); type: functional;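 further: IC50 reflects cytotoxicity as loss of cell viability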
cells = type: functional, cell-based; settings: HEK-CNG
Galanin receptor type 3 = biological target: T1, Galanin receptor type 3 (Homo sapiens, UniProt O60755); test: Fluorescence-based cell-based primary high throughput dose response assay to identify antagonists of the Galanin Receptor 3 (GalR3).; type: functional
T1 sequence (O60755 whole entry): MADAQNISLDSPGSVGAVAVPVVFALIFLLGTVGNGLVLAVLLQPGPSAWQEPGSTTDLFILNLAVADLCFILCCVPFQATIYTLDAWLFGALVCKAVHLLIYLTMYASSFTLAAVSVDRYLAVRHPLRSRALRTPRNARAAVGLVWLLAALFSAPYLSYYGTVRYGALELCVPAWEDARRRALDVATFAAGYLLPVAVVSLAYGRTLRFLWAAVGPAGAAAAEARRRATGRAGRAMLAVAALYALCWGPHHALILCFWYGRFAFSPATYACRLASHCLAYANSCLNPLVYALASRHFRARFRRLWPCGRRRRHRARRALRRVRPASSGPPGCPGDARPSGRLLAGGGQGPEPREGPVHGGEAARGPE

[3] = reduction of Shn3 3'UTR-driven luciferase in osteoblasts – cell-based, Clone20 osteoblasts, firefly luciferase, cherry-picked, dose response (AID 624132); type: functional;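 further: firefly luciferase luminescence from reporter carrying the Shn3 3'UTR in osteoblasts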
[4] = non-specific 3'UTR reporter inhibition in Clone20-Shn3RL – cell-based, Renilla luciferase, cherry-picked, counter-screen for Shn3 inhibitor project, dose response (AID 624133); type: functional
[5] = loss of viability in HepG2 cells – cell-based, CellTiter-Glo, cherry-picked, cytotoxicity control for Shn3 inhibitor project, dose response (AID 624134); type: functional
[6] = HIV-1 AD8 envelope cell-cell fusion blockers – cherry-pick, dose response (AID 652062); type: functional, cell-based;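 further: luciferase signal from cell-cell fusion driven by HIV-1 clade B AD8 Env; potency is for inhibitors of fusion seen as a drop in luminescence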
INS1 = test: INS-1E survival protection against cytokine death – cell-based, luminescence, retest, dose response (AID 449756); type: functional; settings: Rattus norvegicus;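 further: cell death triggered by IL-1 beta plus TNF-alpha plus IFN-gamma mixture; protective hits raise ATP signal compared with cytokine alone wells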
[7] = blockers of HIV-1 ZM109 envelope-driven cell-cell fusion – HeLa effector, CEM target cells, luciferase, cherry-pick, dose response (AID 652058); type: functional, cell-based;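 further: luciferase signal from HIV-1 Env mediated cell-cell fusion of effector and target cells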
[8] = biological target: T2, Sphingosine 1-phosphate receptor 4 (Homo sapiens, UniProt O95977); test: Late stage fluorescence dose response cell-based screening assay for antagonists of the Sphingosine 1-Phosphate Receptor 4 (S1P4). [Related pubchem assays: 1524 (Confirmation screen (S1P4 antagonists).), 1510 (Primary screen (S1P4 antagonists).), 1853 (Summary AID (S1P4 antagonists).), 1692 (Dose response screen (S1P4 antagonists).)]; type: functional
T2 sequence (O95977 whole entry): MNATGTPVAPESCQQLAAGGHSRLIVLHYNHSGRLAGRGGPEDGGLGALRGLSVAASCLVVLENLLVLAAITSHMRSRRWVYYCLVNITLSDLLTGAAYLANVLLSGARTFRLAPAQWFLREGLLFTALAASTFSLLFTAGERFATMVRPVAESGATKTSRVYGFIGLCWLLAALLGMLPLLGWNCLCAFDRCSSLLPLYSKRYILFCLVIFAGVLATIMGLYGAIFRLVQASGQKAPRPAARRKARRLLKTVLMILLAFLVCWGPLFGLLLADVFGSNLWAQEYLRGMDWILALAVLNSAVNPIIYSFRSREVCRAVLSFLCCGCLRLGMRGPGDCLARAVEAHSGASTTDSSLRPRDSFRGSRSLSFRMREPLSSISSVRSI

Beta Lactamase = Beta Lactamase (Pseudomonas aeruginosa, UniProt Q932Y6); test: BLA reporter interference, concentration series – BLA reporter cells, FRET fluorescence, artefact control for TLR9-MyD88 binding inhibitor project, dose response (AID 588341); type: cell-based;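 further: cell based assay in CHO-K1 cells stably expressing beta-lactamase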
Chain of Beta Lactamase (Q932Y6 whole entry): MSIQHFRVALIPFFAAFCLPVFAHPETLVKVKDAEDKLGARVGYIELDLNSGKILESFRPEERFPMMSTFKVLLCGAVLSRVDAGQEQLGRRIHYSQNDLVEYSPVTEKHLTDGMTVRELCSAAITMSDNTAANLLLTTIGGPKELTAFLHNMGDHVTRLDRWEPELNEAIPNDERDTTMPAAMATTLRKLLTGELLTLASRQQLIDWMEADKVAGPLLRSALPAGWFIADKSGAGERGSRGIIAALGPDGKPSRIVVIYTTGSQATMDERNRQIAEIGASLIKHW

[9] = biological target: Type-1 angiotensin II receptor (Homo sapiens, UniProt P30556); test: antagonism of angiotensin II type 1 receptor – cell-based, uHTS hits, selectivity assay for APJ receptor antagonist project, dose response (AID 463214); type: functional;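 further: antagonist potency against angiotensin II stimulated AT1 response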
Chain of Type-1 angiotensin II receptor (P30556 whole entry): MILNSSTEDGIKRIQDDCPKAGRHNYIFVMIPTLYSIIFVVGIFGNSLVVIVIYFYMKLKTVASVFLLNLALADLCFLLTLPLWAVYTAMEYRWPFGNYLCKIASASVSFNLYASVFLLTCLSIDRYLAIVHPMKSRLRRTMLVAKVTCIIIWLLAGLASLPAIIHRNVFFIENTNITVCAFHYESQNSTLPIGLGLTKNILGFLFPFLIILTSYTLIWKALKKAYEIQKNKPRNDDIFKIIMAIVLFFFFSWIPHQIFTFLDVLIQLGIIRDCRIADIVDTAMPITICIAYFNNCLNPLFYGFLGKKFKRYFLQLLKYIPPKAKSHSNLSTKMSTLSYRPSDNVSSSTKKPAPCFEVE

Beta-galactosidase = Beta-galactosidase (Escherichia coli, UniProt Q8VNN2); test: PubChem AID 485352; type: functional
Chain of Beta-galactosidase (Q8VNN2 whole entry): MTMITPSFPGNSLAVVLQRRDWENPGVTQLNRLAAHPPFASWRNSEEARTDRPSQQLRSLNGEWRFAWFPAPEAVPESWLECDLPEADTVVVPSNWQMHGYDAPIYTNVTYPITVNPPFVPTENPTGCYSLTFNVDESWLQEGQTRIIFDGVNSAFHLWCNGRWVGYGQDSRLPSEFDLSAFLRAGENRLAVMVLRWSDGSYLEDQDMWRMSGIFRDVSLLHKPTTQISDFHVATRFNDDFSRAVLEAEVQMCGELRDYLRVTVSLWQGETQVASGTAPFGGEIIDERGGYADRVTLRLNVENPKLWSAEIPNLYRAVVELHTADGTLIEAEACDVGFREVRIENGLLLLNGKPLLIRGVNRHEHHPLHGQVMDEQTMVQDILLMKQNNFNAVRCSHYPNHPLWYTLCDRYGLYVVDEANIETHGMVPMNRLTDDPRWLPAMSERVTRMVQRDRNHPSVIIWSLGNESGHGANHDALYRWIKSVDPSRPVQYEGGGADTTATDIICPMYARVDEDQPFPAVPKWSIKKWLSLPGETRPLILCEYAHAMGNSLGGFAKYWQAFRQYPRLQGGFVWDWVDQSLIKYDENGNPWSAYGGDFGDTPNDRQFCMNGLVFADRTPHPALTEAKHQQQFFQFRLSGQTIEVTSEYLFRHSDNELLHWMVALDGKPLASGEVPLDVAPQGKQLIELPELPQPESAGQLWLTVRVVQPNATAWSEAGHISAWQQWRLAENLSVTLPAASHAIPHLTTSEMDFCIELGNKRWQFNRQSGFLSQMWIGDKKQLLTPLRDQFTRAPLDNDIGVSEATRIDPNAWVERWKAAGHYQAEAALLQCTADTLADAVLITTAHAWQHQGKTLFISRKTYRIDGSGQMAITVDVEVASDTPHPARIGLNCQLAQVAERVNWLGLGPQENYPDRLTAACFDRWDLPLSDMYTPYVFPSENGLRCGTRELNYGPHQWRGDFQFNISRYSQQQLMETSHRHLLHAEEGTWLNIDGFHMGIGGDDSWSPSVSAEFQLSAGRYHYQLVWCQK

BJ [10] = test: BJ-TERT fibroblast viability loss – cell-based, RAS-independent, luminescence, dose response (AID 1933); type: functional; settings: Homo sapiens
BJ [11] = test: BJ-TERT-LT-ST fibroblast viability loss – cell-based, RAS-independent, luminescence, dose response (AID 1935); type: functional; settings: Homo sapiens;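 further: BJ fibroblasts immortalized with TERT plus LT and ST oncogenes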
[12] = biological target: Heat shock protein HSP 90-alpha (Homo sapiens, UniProt P07900); type: functional, organism-based
BJ [13] = test: cells; type: functional, cell-based; settings: Homo sapiens
[14] = DRD fibroblast viability loss – cell-based, non-viral oncogenic, luminescence, dose response (AID 1934); type: functional; settings: Homo sapiens
[15] = biological target: Sphingosine 1-phosphate receptor 1 (Homo sapiens, UniProt P21453); type: functional;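 further: Tango beta-arrestin reporter U2OS cells stimulated with S1P near its EC80; inhibitor potency meaning antagonism of receptor activation by the natural agonist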
Chain of Sphingosine 1-phosphate receptor 1 (P21453 whole entry): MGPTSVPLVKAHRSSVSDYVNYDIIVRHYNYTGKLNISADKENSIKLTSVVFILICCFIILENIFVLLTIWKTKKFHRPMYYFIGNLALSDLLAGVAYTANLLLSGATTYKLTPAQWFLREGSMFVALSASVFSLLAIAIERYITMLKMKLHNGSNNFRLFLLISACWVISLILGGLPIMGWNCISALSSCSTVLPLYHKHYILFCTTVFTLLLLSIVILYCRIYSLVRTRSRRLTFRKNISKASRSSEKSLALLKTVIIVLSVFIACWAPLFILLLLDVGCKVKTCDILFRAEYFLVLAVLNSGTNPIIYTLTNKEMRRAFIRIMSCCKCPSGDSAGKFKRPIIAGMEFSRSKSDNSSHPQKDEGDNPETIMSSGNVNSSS

[16] = biological target: T3, Heat shock factor protein 1 (Mus musculus, UniProt P38532); test: decrease of HSF1-responsive luciferase luminescence – cell-based, NIH3T3, dose retest, confirmation (AID 2382); type: functional;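 further: NIH3T3 fibroblasts with HSF1-driven luciferase reporter stressed by proteasome inhibitor MG132; luminescence from HSF1-driven luciferase expression after 8 hours of MG132 stress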
T3 sequence (P38532 whole entry): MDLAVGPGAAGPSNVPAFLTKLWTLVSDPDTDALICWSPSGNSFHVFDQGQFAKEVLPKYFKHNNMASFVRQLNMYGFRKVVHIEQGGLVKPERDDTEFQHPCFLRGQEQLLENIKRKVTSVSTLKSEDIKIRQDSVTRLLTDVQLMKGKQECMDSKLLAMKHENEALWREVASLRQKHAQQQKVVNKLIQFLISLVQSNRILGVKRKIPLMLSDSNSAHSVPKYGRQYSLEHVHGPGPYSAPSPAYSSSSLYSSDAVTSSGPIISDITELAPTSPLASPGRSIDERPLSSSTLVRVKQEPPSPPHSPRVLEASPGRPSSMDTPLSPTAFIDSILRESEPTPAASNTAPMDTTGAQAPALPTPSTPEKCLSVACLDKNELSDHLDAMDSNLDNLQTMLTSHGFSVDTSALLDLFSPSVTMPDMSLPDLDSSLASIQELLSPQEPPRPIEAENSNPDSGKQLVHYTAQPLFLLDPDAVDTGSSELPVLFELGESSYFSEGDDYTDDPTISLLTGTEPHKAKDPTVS

CHO = CHO cell viability loss, potency – luminescence, cytotoxicity control for TLR9-MyD88 binding inhibitor project, dose response (AID 588339); type: functional, cell-based, hamster; settings: Cricetulus griseus;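 further: CHO cells stably coexpressing TLR9 and MyD88 fusions from primary screen; compound exposure lasted 48 hours before viability readout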
[17] = biological target: T2, Sphingosine 1-phosphate receptor 4; test: Fluorescence dose response cell-based high throughput screening assay for antagonists of the Sphingosine 1-Phosphate Receptor 4 (S1P4). [Related pubchem assays: 1524 (Confirmation in triplicates.), 1510 (Primary screen.)]; type: functional

Chain of Cytochrome P450 3A4 (P08684 whole entry): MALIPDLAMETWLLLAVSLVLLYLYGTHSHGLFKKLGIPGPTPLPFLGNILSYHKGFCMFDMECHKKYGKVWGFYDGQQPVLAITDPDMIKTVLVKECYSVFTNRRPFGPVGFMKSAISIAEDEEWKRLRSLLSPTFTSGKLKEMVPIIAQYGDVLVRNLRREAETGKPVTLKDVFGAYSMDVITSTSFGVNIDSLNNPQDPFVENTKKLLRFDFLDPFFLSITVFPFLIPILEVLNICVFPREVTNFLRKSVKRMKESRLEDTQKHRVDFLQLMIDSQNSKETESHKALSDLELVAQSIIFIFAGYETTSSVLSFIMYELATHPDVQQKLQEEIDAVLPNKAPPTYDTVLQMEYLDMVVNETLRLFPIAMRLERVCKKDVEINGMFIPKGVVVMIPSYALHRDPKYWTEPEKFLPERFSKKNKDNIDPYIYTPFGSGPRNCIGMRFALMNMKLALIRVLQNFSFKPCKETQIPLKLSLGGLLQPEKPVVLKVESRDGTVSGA

Clc1ccc(C(Cl)(Cl)Cl)c(Cl)c1
AC50 (Cytochrome P450 3A4): 31.6 µM (inconclusive) | AC50 [1]: 20 µM (inconclusive)

COc1cc(CSc2nnnn2-c2ccc(C)cc2)cc(OC)c1OC
IC50 (Jurkat): > 80 µM (inactive) | IC50 [2]: > 80 µM (inactive) | EC50 (cells): > 29.9 µM (inactive) | IC50 (Galanin receptor type 3): 1.22 µM (active) | AC50 [3]: 1.02 µM (active) | AC50 [4]: 2.16 µM (active) | AC50 [5]: 2.51 µM (active) | AC50 [6]: 4.54 µM (active) | AC50 (INS1): 2.98 µM (active) | AC50 [7]: 4.94 µM (active)

O=[N+]([O-])c1cnc(Sc2ccncn2)s1
IC50 [8]: 1.72 µM (not active) | IC50 (Beta Lactamase): > 49.7 µM (inactive) | IC50 [9]: 5.67 µM (active) | EC50 (Beta-galactosidase): > 40 µM (inactive) | EC50 (BJ [10]): 2.21 µM (active) | EC50 (BJ [11]): 4.97 µM (inconclusive) | AC50 [12]: 1.49 µM (active) | EC50 (BJ [13]): 8.38 µM (active) | EC50 [14]: 5.64 µM (active) | AC50 (INS1): 4.35 µM (active) | IC50 [15]: 15 µM (not active) | EC50 [16]: 4.12 µM (active) | IC50 (CHO): 1.29 µM (active) | IC50 [17]: 0.86 µM (active)
